In patent publication US5427766A, “Radiolabeled steroids for use in radiochemical-guided surgery” (priority 1993, dated 1995):

Assays:
[1] = In vivo localization (biodistribution) in athymic female nude mice bearing intraperitoneal MCF-7 tumors; design: species or system athymic female NCR-Nu Mice; settings: mouse, in vivo, ip; for tissue uptake: 10-12 hours
Experimental: (§1) In vivo localization of 11β-ethyl-17α-(Z)-[^125 I](iodovinyl)estra-3,17β-diol (5) and a control compound 16α-[^125 I]iodovinyl-3,17β-estradiol (commercially available from DuPont New England Nuclear, MA) was determined in athymic female NCR-Nu Mice (purchased from Simonsen Laboratories, Gilroy, Calif.) bearing subcutaneous MCF-7(ER+) breast tumor xenografts. Prior to injection of the compounds, the mice were each implanted with fragments of MCF-7 breast tumor (approximately 2 cubic millimeters) in the subcutis of the left flank. At approximately the same time, a 1.7 mg estradiol pellet (Innovative Research of America, Toledo, Ohio) was implanted in the scapular region. The tumors were allowed to grow until they reached between 50 and 200 mg by visual inspection (approximately four to five weeks) prior to injection of the test compounds. One day prior to injection of the test compounds, the estradiol pellet was removed.
(§2) The mice were each injected via tail vein with between 3 (1.1×10^5 Bq) and 6 μCi ([…]) ^125 I in approximately 50 μL of phosphate buffered saline. The mice were sacrificed at various time intervals. After exsanguination, the selected organ/tissue were excised, weighed and radioactivity measured in a gamma counter. The counts per minute (cpm) of 125I in each tissue was determined and expressed as cpm per gram of tissue per injected dose multiplied by 100 (percent injected dose/gram).
The procedure of Example 3 was followed except each mouse was inoculated intraperitoneally with MCF-7 breast carcinoma cell line (7.5×10^6 cell/50 μL) rather than implanted subcutaneously with MCF-7 breast tumor. One day prior to this procedure, a 1.7 mg estradiol pellet was implanted subcutaneously in the scapular region. The tumor cells were allowed to form solid tumor nodules for 4 to 6 weeks prior to injection of the test compounds.

[2] = In vivo localization (biodistribution) in athymic female nude mice bearing subcutaneous MCF-7 tumor xenografts; design: species or system athymic female NCR-Nu Mice; settings: mouse, sc, tail vein, subcutaneous MCF-7, mean, n = 5; for tissue uptake: 10-12 hours
Experimental: as §1, §2

[3] = Percent Injected Dose/Gram, kidney
[4] = Percent Injected Dose/Gram, liver
[5] = Percent Injected Dose/Gram, muscle
[6] = Percent Injected Dose/Gram, spleen
[7] = Percent Injected Dose/Gram, tumor
[8] = mcf-7 tumor, Tumor, read-out: Percent Injected Dose/Gram, tumor
[9] = Blood, read-out: Percent Injected Dose/Gram, blood
[10] = Fat, read-out: Percent Injected Dose/Gram, fat
[11] = Kidney, read-out: Percent Injected Dose/Gram, kidney
[12] = Liver, read-out: Percent Injected Dose/Gram, liver
[13] = Muscle, read-out: Percent Injected Dose/Gram, muscle
[14] = Spleen, read-out: Percent Injected Dose/Gram, spleen
[15] = uterus, Uteri, read-out: Percent Injected Dose/Gram, uteri

## CC[C@H]1C[C@@]2(C)[C@@H](CC[C@@]2(O)/C=C\[125I])[C@@H]2CCc3cc(O)ccc3[C@@H]12 [Compound 5, 11β-ethyl-17α-(Z)-[^125 I](iodovinyl)estra-3,17β-diol]
[1]; Blood, tail vein, intraperitoneal MCF-7, mean, n = 5, read-out: Percent Injected Dose/Gram, blood
  tissue uptake: 0.61 %ID/g
[1]; Blood, 2 hours, tail vein, intraperitoneal MCF-7, mean, n = 5, read-out: Percent Injected Dose/Gram, blood
  tissue uptake at 2 h: 2.07 %ID/g
[1]; Blood, 6 hours, tail vein, intraperitoneal MCF-7, mean, n = 5, read-out: Percent Injected Dose/Gram, blood
  tissue uptake at 6 h: 0.88 %ID/g
[1]; Fat, tail vein, intraperitoneal MCF-7, mean, n = 5, read-out: Percent Injected Dose/Gram, fat
  tissue uptake: 0.67 %ID/g
[1]; Fat, 2 hours, tail vein, intraperitoneal MCF-7, mean, n = 5, read-out: Percent Injected Dose/Gram, fat
  tissue uptake at 2 h: 3.1 %ID/g
[1]; Fat, 6 hours, tail vein, intraperitoneal MCF-7, mean, n = 5, read-out: Percent Injected Dose/Gram, fat
  tissue uptake at 6 h: 1.64 %ID/g
[1]; Fat, 24 hours, tail vein, intraperitoneal MCF-7, mean, n = 5, read-out: Percent Injected Dose/Gram, fat
  tissue uptake at 24 h: 0.12 %ID/g
[1]; [3]
  tissue uptake at 2 h: 2.08 %ID/g
  tissue uptake at 6 h: 0.78 %ID/g
  tissue uptake at 24 h: 0.13 %ID/g
  tissue uptake at 48 h: 0.03 %ID/g
[1]; [4]
  tissue uptake at 2 h: 8.26 %ID/g
  tissue uptake at 6 h: 4.08 %ID/g
  tissue uptake at 24 h: 1.14 %ID/g
  tissue uptake at 48 h: 0.44 %ID/g
[1]; [5]
  tissue uptake at 2 h: 0.69 %ID/g
  tissue uptake at 6 h: 0.31 %ID/g
[1]; [6]
  tissue uptake at 2 h: 1.72 %ID/g
  tissue uptake at 6 h: 0.86 %ID/g
  tissue uptake at 24 h: 0.16 %ID/g
  tissue uptake at 48 h: 0.06 %ID/g
[1]; [7]
  tissue uptake at 2 h: 2.33 %ID/g
  tissue uptake at 6 h: 1.6 %ID/g
  tissue uptake at 24 h: 1.07 %ID/g
  tissue uptake at 48 h: 0.76 %ID/g
[1]; Uteri, tail vein, intraperitoneal MCF-7, mean, n = 5, read-out: Percent Injected Dose/Gram, uteri
  tissue uptake: 3.95 %ID/g
[1]; Uteri, 2 hours, tail vein, intraperitoneal MCF-7, mean, n = 5, read-out: Percent Injected Dose/Gram, uteri
  tissue uptake at 2 h: 6.47 %ID/g
[1]; Uteri, 6 hours, tail vein, intraperitoneal MCF-7, mean, n = 5, read-out: Percent Injected Dose/Gram, uteri
  tissue uptake at 6 h: 4.43 %ID/g
[1]; Uteri, 24 hours, tail vein, intraperitoneal MCF-7, mean, n = 5, read-out: Percent Injected Dose/Gram, uteri
  tissue uptake at 24 h: 3.35 %ID/g
[1]; Uteri, 48 hours, tail vein, intraperitoneal MCF-7, mean, n = 5, read-out: Percent Injected Dose/Gram, uteri
  tissue uptake at 48 h: 1.62 %ID/g
[2]; [8]
  tissue uptake: 0.83 %ID/g
  tissue uptake at 2 h: 1.15 %ID/g
  tissue uptake at 6 h: 1.1 %ID/g
  tissue uptake at 24 h: 0.55 %ID/g
  tissue uptake at 48 h: 0.36 %ID/g
[2]; [9]
  tissue uptake: 0.37 %ID/g
  tissue uptake at 2 h: 1.11 %ID/g
  tissue uptake at 6 h: 1.06 %ID/g
  tissue uptake at 24 h: 0.09 %ID/g
  tissue uptake at 48 h: 0.03 %ID/g
[2]; [10]
  tissue uptake: 0.82 %ID/g
  tissue uptake at 2 h: 2.18 %ID/g
  tissue uptake at 6 h: 1.72 %ID/g
  tissue uptake at 24 h: 0.14 %ID/g
[2]; [11]
  tissue uptake: 0.45 %ID/g
  tissue uptake at 2 h: 1.24 %ID/g
  tissue uptake at 6 h: 1.01 %ID/g
  tissue uptake at 24 h: 0.1 %ID/g
  tissue uptake at 48 h: 0.02 %ID/g
[2]; [12]
  tissue uptake: 2.39 %ID/g
  tissue uptake at 2 h: 5.61 %ID/g
  tissue uptake at 6 h: 5.34 %ID/g
  tissue uptake at 24 h: 0.87 %ID/g
  tissue uptake at 48 h: 0.36 %ID/g
[2]; [13]
  tissue uptake: 0.09 %ID/g
  tissue uptake at 2 h: 0.56 %ID/g
  tissue uptake at 6 h: 0.33 %ID/g
[2]; [14]
  tissue uptake: 0.54 %ID/g
  tissue uptake at 2 h: 1.26 %ID/g
  tissue uptake at 6 h: 0.97 %ID/g
  tissue uptake at 24 h: 0.18 %ID/g
  tissue uptake at 48 h: 0.06 %ID/g
[2]; [15]
  tissue uptake: 3.66 %ID/g
  tissue uptake at 2 h: 4.66 %ID/g
  tissue uptake at 6 h: 4.4 %ID/g
  tissue uptake at 24 h: 1.95 %ID/g
  tissue uptake at 48 h: 1.26 %ID/g
